According to patent publication US20260327198A1, “2-DIARYLMETHYL-4-AMINOTETRAHYDROPYRAN SULFONIMIDAMIDES AS ANTICANCER, ANTIINFLAMMATORY, ANTIFIBROTIC AND NEUROPROTECTIVE AGENTS” (Atux Iskay LLC, priority 2022, published 2026):

Assays:
[1] = system: D425 medulloblastoma cells; assay: D425 medulloblastoma cell viability / growth inhibition (CellTiter-Glo); type: cell-based; settings: n = 3, 0.1% DMSO
Protocol: D425 medulloblastoma cells were purchased from SigmaAldrich. D425 meduloblastoma cells were cultured in improved Dulbecco's modified Eagle's medium (DMEM) Richter's modification supplemented with 20% fetal bovine serum and 1% Penicillin-streptomycin. Incubation was performed at 37° C. and 5% CO2.
D425 cells were seeded at 3000-3500 cells/90 μL growth medium per well on 96-well tissue culture plates. Cells were incubated overnight to allow them to recover. Next day cells were treated with tested compounds and incubated for 48 hours.
Cell Proliferation assays in triplicate were performed at each concentration. Compounds test range was 1-30 μM (0, 5, 10, 15, 20, 25, and 30). The compounds were dissolved in DMSO. A series of dilutions were made in 1% DMSO in growth medium so that the final concentration of DMSO is 0.1% in all of treatments.
After treatment, cells were allowed to equilibrate at room temperature for one hour. Cell proliferation was measured by Luminescence quantification using Promega CellTiter-Glo Luminescent Cell Viability Assay. To perform the assay, 90 μL of Celltiter-Glo substrate was added to each well, plates were shake for 2 minutes and allowed to equilibrate for 10 minutes at room temperature. Luminescence intensity was measured using the Spectramax i3x plate reader.
The Luminescence intensity data were analyzed using the computer software Graphpad Prism. In the absence of the compound, the luminescence intensity (Lt) in each data set was defined as 100% cell viability. The percent cell in the presence of each compound was calculated according to the following equation: % Cell=L/Lt, were L=the luminescence intensity in the presence of the compound.
The values of % cell versus a series of compound concentrations (0, 5, 10, 15, 20, 25, and 30 μM) were then plotted using Nonlinear regression analysis of Sigmoidal dose-response curve. IC50 value was determined by the concentration causing a half-maximal percent activity.

[2] = system: phosphatase activity in ApoE transfected A172 glioblastoma cells; assay: Cellular in vitro phosphatase activation assay (Malachite Green, ApoE cDNA transfected A172 cells); type: cell-based; settings: Homo sapiens, A 172, A172 glioblastoma cells transfected with ApoE cDNA, 24 hours, n = 3, read-out: % increase from ApoE transfected cell at 5 μM test compound concentration
Protocol: Cellular in vitro phosphatase activation assay was performed using the method of Theendakara et al, Molecular and Cellular Neuroscience, 83 (2017), pages 83-91 which is described below:
A172 glioblastoma cells were cultured in Dulbecco's modified Eagle's medium (DMEM) supplemented with 10% fetal bovine serum and 1% Penicillin-streptomycin. Incubation was performed at 37° C. and 5% CO2.
A172 cells were seeded at 5×10^5 cells/2.5 ml growth medium (without antibiotics) per well on 6-well tissue culture plates. Cells were incubated overnight to allow them to recover and reattach. […]
After 24 hrs, cells were washed twice with imidazole buffer and lysed using NP-40 Lysis buffer. […] The amount of phosphate release in the assay was determined by measuring absorbance at 620 nm using the Spectramax i3x plate reader.
The absorbance intensity data were analyzed using the computer software Graphpad Prism. The phosphate concentration for each sample was determined from the standard curve using phosphate standard concentrations. In order to compare samples, the first set (column A) were there was no transfection performed and no compound added, was designated a baseline; the absorbance measurement in this column was set as 100% phosphatase activity.

[3] = system: mouse models of allergic airway disease; settings: small molecule activators of PP2A; cited from earlier work

Row | SMILES | IC50 ([1]; Medulloblastoma cell, 48 h) [µM] | IC50 ([1]; 48 hours) [µM] | development of inflammation, airway hyperreactivity in mouse models of allergic airway disease [3] | also measured
1 | N=S(=O)(N[C@H]1CCOC(C2c3ccccc3CCc3ccccc32)C1)c1ccc(OC(F)(F)F)cc1 (single isomer, unassigned) [Example 3] | 8.3 |  |  | activation at 5 µM [2]: 22%
2 | N=S(=O)(N[C@H]1CCO[C@@H](C(c2ccc(F)cc2)c2ccc(F)cc2)C1)c1ccc(OC(F)(F)F)cc1 (single isomer, unassigned) [Example 7-isomer1] | 14.3 |  |  | 
3 | N=S(=O)(N[C@H]1CCO[C@@H](C(c2ccc(F)cc2)c2ccc(F)cc2)C1)c1ccc(OC(F)(F)F)cc1 (single isomer, unassigned) [Example 7-isomer2] |  | 10.4 |  | 
4 | CCCCCCCCc1ccc(CCC(N)(CO)CO)cc1 [fingolimod] |  |  | inhibited the development of inflammation, airway hyperreactivity | 
5 | CCCCCCCOc1ccc(CCC(C)(N)CO)cc1 [AAL(S), 2-amino-4-(4-(heptyloxy)phenyl)-2-methylbutan-1-ol] |  |  | inhibited the development of inflammation, airway hyperreactivity | 
6 | N=S(=O)(N[C@H]1CCOC(C2c3ccccc3CCc3ccccc32)C1)c1ccc(OC(F)(F)F)cc1 (single isomer, unassigned) [Example 4] |  | 9.5 |  | 
